We go through 2 molecules from US11938125B2, “Use of Hsp70 as a regulator of enzymatic activity” (Zevra Denmark A/S, priority 2008, dated 2024).

For data set [1], the system named is lysosomes of WT and Hsp70 iMEFs. Nature of the data set: Cytosolic cathepsin activity (zFRase) in MEFs. Format: cell-based, murine. Particulars: 3 h.
Method: Cells were treated with cisplatin as indicated, cytosolic fractions were obtained by digitonin treatment and cytosolic cysteine cathepsin (zFRase) and caspase-3-like (DEVDase) activities were determined. […] The total and cytoplasmic (digitonin-extracted) cathepsin activities were measured in digitonin-treated samples using zFR-AFC (Enzyme System Products) probe as described in the art.
The subject of data set [2] is lysosomes of Hsp70-MEFs. In words: Live single-cell imaging of loss of lysosomal integrity (photo-oxidation) in Hsp70-MEFs. It counts as cell-based, murine. The following applies: subtoxic desipramine 12.5 and 25 μM, 3 h.
Method: Assays for lysosomal integrity. Sub-confluent cells incubated with 2 μg/ml acridine orange for 15 min at 37° C. were washed, irradiated and analyzed in Hanks balanced salt solution complemented with 3% fetal calf serum. Cells for single cell imaging were selected from 8 pre-defined areas of each well in transmitted light-mode after which the same cells were immediately visualized and exposed to blue light from USH102 100 W mercury arc burner (Ushio electric) installed in a U-ULS100HG housing (Olympus) for 20 sec. Fluorescence microscopy was performed on Olympus IX-70 inverted microscope with a […] 1×20 objective with NA=0.40. Loss of lysosomal pH gradient was quantified by counting the loss of intense red staining. A more elaborate method for assaying lysosomal integrity was developed to handle the larger lysosomal compartment of the various fibroblasts used in this study. Cells for single cell imaging were selected from 8 pre-defined areas of each well in transmitted light-mode after which the same cells were immediately and continuously exposed to 489 nm light from a 100 mW diode laser while laser scanning micrographs where captured every 330 ms on a Zeiss LSM LIVE DUO confocal system in two channels defined by bandpass filters for 495-555 nm (green) and LP650 nm (Red) light. The resulting timelapse movies where subsequently analysed by the integrated Zeiss LSM DUO software.
For data set [3], the system named is WT and Hsp70 iMEFs. Nature of the data set: Viability of MEFs (MTT reduction). It counts as cell-based. Particulars: 3 h. As for the experimental part:
The viability of cells was analyzed by the 3-(4,5-dimethylthiazole-2-yl)-2,5-diphenyltetrazolium bromide (MTT) reduction assay as described previously^67.
Assays for cell viability. Cell density was assessed by the 3-(4,5-dimethylthiazole-2-y)-2,5-[…] (MTT, SIGMA-Aldrich) reduction assay essentially as described in the art. Apoptosis-like cell death was assessed by staining the cells with 0.05 μg/ml Hoechst 33342 (Molecular Probes) and counting cells with condensed nuclei in an inverted Olympus IX-70 fluorescent Microscope (Filter U-MWU 330-385 nm). For each experiment a minimum of eight randomly chosen areas were counted.
A general note: Formazan colour is commonly taken as a measure of viable cells.

Data set [4] deals with NPDA fibroblasts. Nature of the data set: Lysosomal area of confocal cross sections, NPDA fibroblasts. Format: cell-based, human. Particulars: NPDA fibroblasts, 24 h, 300 nM rHsp70 or W90F, 150 nM rASM or combination. The source says:
Immunodetection and microscopy. Primary antibodies used included mouse monoclonal antibodies against Hsp70 (2H9; kindly provided by Boris Margulis, Russian Academy of Sciences, St. Petersburg, Russia), glyceraldehyde-3-phosphate dehydrogenase (GAPDH; Biogenesis), BMP (6C4), lysosomal integral membrane protein-1 (H5C6; developed by J. Thomas August and James E. K. Hildreth and obtained from the Developmental Studies Hybridoma Bank developed under the auspices of the NICHD and maintained by The University of Iowa, Department of Biological Sciences, Iowa City, USA). Proteins separated by 10% SDS-PAGE and transferred to a nitrocellulose membrane were detected by using indicated primary antibodies, appropriate peroxidase-conjugated secondary antibodies from Dako, ECL Western blotting reagents (Amersham), and Luminescent Image Reader (LAS-1000Plus, Fujifilm). For immunocytochemistry Alexa […] or Alexa Fluor®-488-conjugated secondary antibodies were used. Lysotracker Red® was used for live visualization of the lysosomal compartment. Fluorescence images were taken using a Zeiss Axiovert 100M laser scanning microscope. Lysotracker quantification and timelapse movies for lysosomal integrity were done on a Zeiss LSM LIVE DUO system.

Data set [5] deals with BMP. Nature of the data set: BIAcore surface plasmon resonance with immobilized BMP-containing LUVs. Format: binding. The following applies: pH 4.5. As for the experimental part:
(§1) For preparation of LUVs a lipid mixture consisting of 10 mol % sphingomyelin, 50 mol % phosphatidylcholine, 20 mol % cholesterol and 20 mol % BMP dissolved in organic solvents, was dried under a stream of argon and rehydrated in Tris/HCl buffer (pH 7.4) (Kolzer et al., 2004). The mixture was freeze-thawed nine times in liquid nitrogen and then in an incubator at 37° C. After ultrasound bath for 15 min the mixture was passed 21 times through a polycarbonate membrane with a pore diameter of 100 nm. Surface plasmon resonance measurements were performed using a BIAcore 2000 system at 25° C. LUVs (total lipid concentration 0.1 mM) were immobilized on the surface of a L1 sensor chip (BIAcore) in PBS (loading buffer). The running buffer used was sodium acetate buffer (50 mM, pH 4.5). As a control, acid sphingomyelinase (0.2 μM, 60 μl in running buffer) was injected directly on the liposome surface. Response units between 4100 RU-5250RU were obtained. The protein of interest was injected in running buffer at a flow rate of 20 μl/min at the concentrations indicated. After injection a dissociation phase of 10 min was appended.
as §1, with “Surface Plasmon Resonance (BIAcore). For” for “For”, “7.4).” for “7.4) (Kolzer et al., 2004).”, “The protein of interest was injected in running buffer at a flow rate of 20 μl/min at the concentrations indicated. After injection a dissociation phase of 10 min was appended.” left out
Background: Surface plasmon resonance follows binding to a sensor surface in real time, without labels.

The test system of data set [6] is lysosomes of NPDA patient fibroblasts. In words: Lysosomal stability of NPDA fibroblasts (photo-oxidation, live single-cell imaging). It counts as cell-based, human. The following applies: NPDA fibroblasts, 24 h, 300 nM rHsp70, 150 nM rASM or combination. As for the experimental part:
Assays for lysosomal integrity. Sub-confluent cells incubated with 2 μg/ml acridine orange for 15 min at 37° C. were washed, irradiated and analyzed in Hanks balanced salt solution complemented with 3% fetal calf serum. Cells for single cell imaging were selected from 8 pre-defined areas of each well in transmitted light-mode after which the same cells were immediately visualized and exposed to blue light from USH102 100 W mercury arc burner (Ushio electric) installed in a U-ULS100HG housing (Olympus) for 20 sec. Fluorescence microscopy was performed on Olympus IX-70 inverted microscope with a LCPlanF1×20 objective with NA=0.40. Loss of lysosomal pH gradient was quantified by counting the loss of intense red staining. A more elaborate method for assaying lysosomal integrity was developed to handle the larger lysosomal compartment of the various fibroblasts used in this study. Cells for single cell imaging were selected from 8 pre-defined areas of each well in transmitted light-mode after which the same cells were immediately and continuously exposed to 489 nm light from a 100 mW diode laser while laser scanning micrographs where captured every 330 ms on a Zeiss LSM LIVE DUO confocal system in two channels defined by bandpass filters for 495-555 nm (green) and LP650 nm (Red) light. The resulting timelapse movies where subsequently analysed by the integrated Zeiss LSM DUO software. The total and cytoplasmic (digitonin-extracted) cathepsin activities were measured in digitonin-treated samples using zFR-AFC (Enzyme System Products) probe as described in the art.

Data set [7] deals with acid sphingomyelinase (ASM), endogenous mutated and loaded rASM. Nature of the data set: ASM activity of NPDA fibroblasts. It counts as cell-based, human. The following applies: 300 nM rHsp70 48 h, or 150 nM rASM alone or with 300 nM rHsp70 24 h. The source says:
WT- and Hsp70-MEFs were generated, immortalized and maintained as described in the art. Human NPDA fibroblasts (83/24) originate from a skin biopsy of a patient with hepatosplenomegaly. Recombinant proteins were generated using the pET-16b vector system and Ni^2+-affinity-purification (Novagen), and labeled with Alexa Fluor 488 according to manufacturers protocol (Molecular Probes). To analyze the lysosomal integrity, we developed a real time imaging method of cells stained with acridine orange, a metachromatic weak base that accumulates in the acidic compartment of the cells staining them red and sensitizing them to photo-oxidation. The photo-oxidation-induced loss of the lysosomal pH-gradient and leakage of acridine orange to the cytosol from individual lysosomes was quantified visually as “loss of red dots” in U2-O—S cells and as a decrease in red and an increase in green fluorescence by Zeiss LSM DUO Software in fibroblasts. The total and cytoplasmic (digitonin-extracted) cathepsin activities were measured in digitonin-treated samples using zFR-AFC (Enzyme System Products) probe as described in the art. The tryptophan fluorescence spectra and liposome 900 light scattering were analyzed in a HEPES buffer (20 mM HEPES, 0.1 mM EDTA, pH as indicated) essentially as described in the art. […]

On to `CNCCCN1c2ccccc2CCc2ccccc21` [desipramine], for which the “permeabilization of lysosomes (leakage of lysosomal cathepsins into the cytosol)” value in data set [1] is “massive permeabilization of lysosomes”. For the same molecule, the “lysosomal stress resistance upon photo-oxidation” value in data set [2] is given as “reverted the lysosomal stress resistance of Hsp70-MEFs to the level of WT-MEFs”. The “desipramine-induced cell death and lysosomal leakage in Hsp70-MEFs as compared to WT-MEFs” value in data set [3] was “significantly reduced”. For the same molecule, in data set [3] (MEFs), the “viability (MTT reduction)” value is recorded as “reduced the viability of MEFs in a dose-dependent manner”.

B1: rASM: recombinant acid sphingomyelinase (protein, UniProt P17405 47-631, looked up)
Sphingomyelin …: LALSDSRVLWAPAEAHPLSPQGHPARLHRIVPRLRDVFGWGNLTCPICKGLFTAINLGLKKEPNVARVGSVAIKLCNLLKIAPPAVCQSIVHLFEDDMVEVWRRSVLSPSEACGLLLGSTCGHWDIFSSWNISLPTVPKPPPKPPSPPAPGAPVSRILFLTDLHWDHDYLEGTDPDCADPLCCRRGSGLPPASRPGAGYWGEYSKCDLPLRTLESLLSGLGPAGPFDMVYWTGDIPAHDVWHQTRQDQLRALTTVTALVRKFLGPVPVYPAVGNHESTPVNSFPPPFIEGNHSSRWLYEAMAKAWEPWLPAEALRTLRIGGFYALSPYPGLRLISLNMNFCSRENFWLLINSTDPAGQLQWLVGELQAAEDRGDKVHIIGHIPPGHCLKSWSWNYYRIVARYENTLAAQFFGHTHVDEFEVFYDEETLSRPLAVAFLAPSATTYIGLNPGYRVYQIDGNYSGSSHVVLDHETYILNLTQANIPGAIPHWQLLYRARETYGLPNTLPTAWHNLVYRMRGDMQLFQTFWFLYHKGHPPSEPCGTPCRLATLCAQLSARADSPALCRHLMPDGSLPEAQSLWPRPLFC
Turning to B1, the “lysosomal area / volume of the lysosomal compartment” value in data set [4] is reported as “normalize the volume of the dramatically enlarged lysosomal compartment”. Besides, the “affinity for BMP compared to that of Hsp70” value in data set [5] was “half”. Besides, in data set [6], the lysosomal stability result is on record as “ability to stabilize the lysosomes”. For the same molecule, the ASM activity entry in data set [7] is on record as “increased ASM activity”.
